Assay results reported in patent publication US20190136188A1, “4HPR AND ITS USE IN THE CULTURING OF HEMATOPOIETIC STEM CELLS” (UNIVERSITY HEALTH NETWORK, priority 2016, published 2019).

Columns and labels:
[1] = tested on: CB stem and prog cells; test: Flow cytometry for ROS (CELLROX), mitochondrial membrane potential (TMRE), mitochondrial mass (mitotracker green); assay type: cell-based, human
[2] = tested on: CD34+CD38- (stem) and CD34+CD38+ (prog) cells; test: LC3II immunofluorescence with and without Baflomycin A1 (autophagy); assay type: cell-based, human; settings: day 2, 2 uM 4HPR, in the presence of BAF; stem vs prog
Method: (A) Representative mmunofluorescence images taken by confocal microscopy for DAPI (blue) and LC3II staining (green) for CD34+CD38− cells (stem) following 2 days of treatment with DMSO control or 2 uM 4HPR with and without the autophagy inhibitor baflomycin A1 (BAF) to assay for basal autophagy and autophagic flux. (B) Quantitation of LC3II foci area as a percentage of total cell area for stem and prog (CD34+38+) cells from three independent CB using R and Image J software. (C) LCII foci area is increased with 4HPR treatment relative to control in the presence of BAF only in stem populations and not Prog populations. (D) Representative flow cytometry histogram plot of cyto-ID fluorescence intensity of control (black) and 4HPR (green) treated stem cells to assay for autophagic flux. Lower mean fluorescence intensity (MFI) indicates more turnover of autophagosomes and thus increased autophagic flux. […] (F) Cytokine withdrawal for 3 hours activates autophagic flux in CB stem cells to similar levels as 2 uM 4HPR as assayed by cyto-ID flow cytometry at day 2 post-treatment (n=3).
We hypothesize that such selective enhancement of CFC cloning efficiency with 4HPR treatment is a result of activating autophagy in HSC in human CB. Warr et all had previously shown that mouse HSC, but not comitted progenitors activate autophagy under stress stimuli. […]

[3] = tested on: lineage-depleted CB (lin-CB) cells; test: Dose titration of 4HPR, cell viability; assay type: cell-based; settings: Homo sapiens, 72 h, 3 days post-treatment, read-out: concentration giving half maximal cell viability compared to vehicle control
Method: (A) Dose response of varying [4HPR] in CB at day 3 post-treatment showing 2 uM 4HPR gives the relative half maximal number of viable cells compared to control. All experiments following are at this 4HPR concentration unless otherwise indicated. […] (C) LC/MS was used to profile the ceramide (Cer), dihydroceramide (dhCer), sphingosine (sph), dihydrosphingosine (dhSph), S1P and dihydro-S1P (dhS1P) levels in lin− CB cells cultured for 8 days with control or 4HPR (n=2). […] (D) HSC, MPP, or GMP were sorted into methylcellulose for CFC assays in the presence of control or 4HPR and colonies were blindly scored following 10-11 days for (D) colonies/100 cells and ((E) colony distribution are shown (n=7). (F) Flow cytometry for erythroid (GlyA+) and monocytic (CD14+) markers in live cells from pooled CFC colonies were scored (n=6). (F) Relative number of colonies from CFC assays comparing the effect of 4HPR or ATRA (n=3) on sorted HSC, MPP or GMP.
However, the functional consequence of 4HPR treatment on human cord blood primitive cells is unknown. […]

[4] = tested on: lin- CB cells; test: RNA-sequencing gene set enrichment; assay type: cell-based, human; settings: 4HPR vs Ctrl
Source text: RNA from 3 pools of Lin− CB cells treated with vehicle control, 4HPR, UM171+SR1 or the triple combination of 4HPR+UM171+SR1 for 2 days were subjected to RNA-sequencing without amplification on the Illumina HiSeq 2500. (A) Functional enrichment map of gene sets enriched (red) by 4HPR treatment including or enriched by Ctrl treatment (blue) at day 2.
To elucidate the genetic pathways enriched by 4HPR treatment in human CB that may contribute to preserving HSC function in ex vivo expansion alone or in combination with UM171 and SR1, we performed RNA-sequencing of 3 pools of lin-CB at day 2 and day 4 following treatment with all four treatment groups. To avoid amplification bias, RNA-seq was performed on samples without amplification. […] The latter is known to be regulated by autophagy (Singh, Nature, 2009).

[5] = stem and prog cells, day 2 and day 3

Structure (SMILES): CC1=C(/C=C/C(C)=C/C=C/C(C)=C/C(=O)Nc2ccc(O)cc2)C(C)(C)CCC1 [4HPR, N-(4hydroxyphenyl)retinamide]
- mitochondrial mass ([1]; progenitor cells, 2 days of treatment): does decrease mitochondrial mass
- ROS [1, 5]: decreased
- mitochondrial mass [1, 5]: decreased
- mitochondrial membrane potential [1, 5]: decreased
- mitochondrial mass ([1]; stem cells, 2 days of treatment): without significantly altering mitochondrial mass in stem cells
- mitochondrial mass ([1]; stem cells, D3 post-treatment): decreases mitochondrial mass by day 3 post-treatment in stem cells
- LC3II foci area relative to ctrl (upregulation of autophagy) [2]: only 4HPR-treated stem cells, but not prog cells exhibit an upregulation of autophagy
- IC50 [3]: 2000 nM
- ER stress and UPR gene sets [4]: upregulates ER stress and UPR gene sets
- autophagy gene sets [4]: enriched for autophagy gene sets including mitophagy
- ceramide/sphingolipid biosynthesis gene sets [4]: enrichment of ceramide/sphingolipid biosynthesis gene sets
- cholesterol/sterol biosynthetic pathways [4]: decrease in cholesterol/sterol biosythetic pathways
